Laboratory results published in patent US20060183696A1, “Use of immune cell specific conjugates for treatment of inflammatory diseases of gastrointestinal tract” (Pliva-Istrazivacki Institut d.o.o., priority 2004, published 2006).
Where two headings read alike, the source gives them in different places. Each block holds one molecule with its values, some of them ahead of it.

Assays:
TNBS induced colitis = test: TNBS-induced inflammatory bowel disease (colitis) in rats; assay type: in vivo, rat
Method: Colitis is induced in male Wistar rats by intracolonic administration of 10-50 mg of TNBS in 0.25 ml of 50% ethanol. Two days prior to administration of TNBS animals are treated with various doses of sterolide (initially ranging from 0.5 to 10 mg/kg of the compound in 0.125% carboxymethyl cellulose in phosphate buffered saline and 1% DMSO) or vehicle control (0.125% carboxymethyl cellulose in phosphate buffered saline and 1% DMSO) or standard steroid such as for example budesonide (1 mg/kg) for 14 days after the TNBS is applied. Rats were sacrificed, blood samples werewere taken (at day 7 and 15 after application of TNBS) to obtain serum samples followed by macroscopic observation and histological evaluation to determine the degree of colonic inflammation. Macroscopic and histological evaluation of tissue damage was done blindly by pathologist. The criteria for assessing macroscopic damage and the numerical rating score are as follows: 0, no damage; 1, localized hyperemia and/or edema; 2, linear ulcer<half of the width of the colon; 3, linear ulcer>half of the width of the colon; 4, small circular ulcer (<1 cm); 5, circular ulcer between 1 and 2 cm; 6, circular ulcer>2 cm. Scores from individual animals were added together and divided by number of animals to get average […] damage. For histological evaluation of colonic injury, each colon is blindly scored according to the following criteria: A) Ulceration: 0, no ulcer, epithelization; 1, small ulcer<3 mm; 2, large ulcer>3 mm; B) Inflammation: 0, no inflammation; 1, mild; 2, moderate; 3, severe; C) Depth of lesion: 0, none; 1, submucosa; 2, muscularis propria; 3, serosa; D) Necrosis: 0, none; 1, mild; 2, severe; E) Granulomas: No, no granulomas; Yes, granulomas present. Maximum score, defined as a sum of all individual scores in this scoring system is 10+granulomas. In some experiments Lekotriene B4 (LTB4) and serum α1 acidic glycoprotein were also measured as an additional indicator of inflammatory activity. Likewise, in selected experiments full thickness specimens from inflamed tissue adjacent to the ulcerated area are excised for measurement of myeloperoxidase (MPO) activity.
Improvement in this experiment is defined by the lower average macroscopic damage and lower histological score, as well as lowering of LTBB4, serum α1 acidic glycoprotein and MPO activity in sterolide treated then in the group of […] (animals receiving vehicle alone).
FIG. 1A describes the macroscopic damage score of the colon in the rat model of TNBS induced colitis (Mann-Whitney Test). The macroscopic damage score of the colon is defined as 0—no damage; 1—localized hyperemia and/or edema; 2—linear ulcer<half of the width of the colon; 3—linear>half the width of the colon or small ulcer (<1 cm) 4—circular ulcer<1 cm; 5—circular between 1 and 2 cm; and 6—circular ulcer>2 cm. The compounds 1′, 2′ and 3′ as shown in the table below were compared against budesonide [a known drug useful for the treatment of Crohn's disease in humans] as a treatment control and just a vehicle as a no treatment control. The no treatment control gave a score of 4 while the treatment control, budesonide, at a dosage of 1 mg/kg gave a score of 2.
FIG. 1B describes effect of conjugates on histological damage score in TNBS induced colitis in rats (Mann-Whitney Test). The histological damage score is defined according to the following criteria: A) Ulceration: 0, no ulcer, epithelization; 1, small ulcer<3 mm; 2, large ulcer>3 mm; B) Inflammation: 0, no inflammation; 1, mild; 2, moderate; 3, severe; C) Depth of lesion: 0, none; 1, submucosa; 2, muscularis propria; 3, serosa; D) Necrosis: 0, none; 1, mild; 2, severe; E) Granulomas: No, no granulomas; Yes, granulomas present. Maximum score, defined as a sum of all individual scores in this scoring system is 10+granulomas. […]

in vivo [1] = details: male, BALB/CJ, mouse
Method: (§1) For I.N. and P.O. administration the substance was dissolved in DMSO. 0.5% methyl cellulose was added up to 100% of the total volume. The solution was applied in a volume of 10 ml/kg b.w. (P.O.) and 10 ml/kg b.w. (I.N.). For I.V. administration the substance was dissolved in DMF. PBS was added up to 100% of the total volume. The solution was applied in a volume of 5 ml/kg b.w. (I.V.)
(§2) The experiment was carried out on approximately eight week old male BALB/CJ mice (IFFA CREDO, Lyon, France), weighing ˜25 g. Animals were weighed, marked and grouped a day before the beginning of the study. After weighing each mouse was given an earmark and placed into a cage (5 mice per cage). […]
(§3) The concentration of the administered compound in biological matrices are calculated by the peak area ratios of compound 1 to an internal standard of roxithromycin using calibration curves and quality control samples.
(§4) Non-compartmental analysis was used for pharmacokinetic analysis in plasma and tissue. The pharmacokinetic parameters were calculated based on average values at each time point using WinNonlin Professional Software, Version 4.1 (Pharsight).
(§5) The pharmacokinetic parameters were calculated as disclosed herein to obtain the bioavailability wherein F=(AUC p.o.(0−∞)/AUC i.v.(0−∞))/(Di.v./Dp.o.).

[2] = Oral bioavailability in rats (p.o. vs i.v., HPLC/MS-MS); details: rat, in vivo
Method: (§6) Male Sprague-Dawley rats weighing approximately 200 g were used. After weighing, each rat was given an earmark and placed into a cage. The day before the beginning of the study, animals were randomly distributed into 5 groups with 5 rats/group and placed into solid bottom cages, on wood dust-free bedding (VRF-1 Rodent's diet, Altromin Gmbh). During the experiment, the rats were maintained on a 12-h light-dark cycle. The rats were weighed and fasted for 12 hours prior to p.o. administration.
(§7) Compound 5 was administered p.o. in 0.125% carboxymethyl cellulose suspension. The dissolved substance was administered oral at a dose of 30 mg/kg body weight (b.w.), using 2.5 mL syringe (BD) and metal gavage. The administered volume was 10 mL/kg b.w.
(§8) Plasma and blood samples were obtained at the following time points after administration: 15, 30, 60, 120, 240, 360 and 480 minutes.
(§9) Blood samples were collected by puncturing the lateral tail vein. Prior to each blood sampling, animals were maintained in warming cabinets at 37° C. for 15 minutes. At each sampling time-point 50 μL of blood were collected and added to an Eppendorf test tube (1.5 mL) containing 50 μL demi water. Blood was collected according the time points stated in the protocol. Specimens were stored at −20° C. until analysis.
(§10) The concentrations of a compound 5 in the biological matrices were determined by a high performance liquid chromatography method using an acetonitrile and water (acidified by 0.1% formic acid) gradient as the chromatographic medium with tandem mass spectrometry detection (HPLC/MS-MS) (Guidance for Industry, Bioanalytical Method Validation, U.S. Department of Health and Human Services, Food and Drug Administration, May 2001).
(§11) Biological samples were prepared by deproteinization with acetonitrile, containing an internal standard. After centrifugation and evaporation of the supernatant fraction, samples were reconstituted in acetonitrile:water with addition of 0.1% formic acid.
(§12) HPLC separation was performed on a reverse phase C18 analytical column (Phenomenex C18(2)m 50×2 mm (3 μm) No 182700-5) with a guard column, maintained at ambient temperature, using a gradient of water:acetonitrile [0 min-1 min 10% acetonitrile, 2.5-3.5 minutes 80% acetonitrile, 3.5-5.6 min 10% acetonitrile with addition of 0.1% formic acid at flow rate 0.3 ml/min
(§13) MS-MS detection was performed in multi-resolution mode (MRM).
(§14) The concentration of the administered compound in biological matrices are calculated by the peak area ratios of compound 5 to an internal standard of roxithromycin using calibration curves and quality control samples.
(§15) The pharmacokinetic parameters were calculated using the PK solutions 2.0 software (Summit Research Services, Pharmacokinetics and Metabolism Software).
(§16) The pharmacokinetic parameters were calculated as disclosed herein to obtain the bioavailability wherein F=(AUC p.o.(0−∞)/AUC i.v. (0−∞))/(Di.v./Dp.o.).

in vivo [3] = details: male, rat, po
Method: as §6, §7, §8, §9, §10, §11, §12, §13, §14, §15, §16

[4] = mouse, in vivo
Method: as §1, §2, §3, §4, §5

[5] = AUC of compounds tested in mice or rats; design: concentration or dose not given beside the values; details: in vivo, po
Method: The area under the curve (AUC) is calculated as: [formula] where n is the number of data points
AUC∞=AUC(0−t)+Cn/λz, where Cn is the last concentration and λz is the elimination rate constant (estimated from the later portion of the plasma/blood concentration vs. time profiles).

[6] = rat, in vivo; for Amounts detected in plasma and blood: po
Method: as §6, §7, §8, §9, §10, §11, §12, §13, §14, §15, §16

Compound: CC[C@H]1OC(=O)[C@H](C)[C@@H](O[C@H]2C[C@@](C)(OC)[C@@H](O)[C@H](C)O2)[C@H](C)[C@@H](O[C@@H]2O[C@H](C)C[C@H](N(C)C)[C@H]2O)[C@](C)(O)C[C@@H](C)CN(CCCNC(=O)[C@@]2(O)[C@H](C)CC3C4CCC5=CC(=O)C=C[C@]5(C)[C@@]4(F)[C@@H](O)C[C@@]32C)[C@H](C)[C@@H](O)[C@]1(C)O (stereo partly shown) [2′]
efficacy on macroscopic damage score compared with budesonide (1 mg/kg) (TNBS induced colitis; FIG. 1A, 2 mg/kg): comparable or superior efficacy to that of the standard steroid budesonide
efficacy on histological damage score compared with budesonide (1 mg/kg) (TNBS induced colitis; FIG. 1B, 2 mg/kg): comparable or superior efficacy to that of the standard steroid budesonide
bioavailability (in vivo [1]): < 1%

bioavailability ([2]; male): 3.7%
AUC [2]: 2580 ng·h/mL
bioavailability [2]: < 10%
Compound: CC[C@H]1OC(=O)[C@H](C)[C@@H](O[C@H]2C[C@@](C)(OC)[C@@H](O)[C@H](C)O2)[C@H](C)[C@@H](O[C@@H]2O[C@H](C)C[C@H](N(C)C)[C@H]2O)[C@](C)(O)C[C@@H](C)CN(CCCNC(=O)Cc2c(C)n(C(=O)c3ccc(Cl)cc3)c3ccc(OC)cc23)[C@H](C)[C@@H](O)[C@]1(C)O [3′]
efficacy on macroscopic damage score compared with budesonide (1 mg/kg) (TNBS induced colitis; FIG. 1A, 10 mg/kg): comparable or superior efficacy to that of the standard steroid budesonide
efficacy on histological damage score compared with budesonide (1 mg/kg) (TNBS induced colitis; FIG. 1B, 10 mg/kg): comparable or superior efficacy to that of the standard steroid budesonide

bioavailability ([2]; male): 6.9%
AUC [2]: 2180 ng·h/mL
bioavailability [2]: < 10%
Compound: CC[C@H]1OC(=O)[C@H](C)[C@@H](O[C@H]2C[C@@](C)(OC)[C@@H](O)[C@H](C)O2)[C@H](C)[C@@H](O[C@@H]2O[C@H](C)C[C@H](N(C)C)[C@H]2O)[C@](C)(O)C[C@@H](C)CN(CCCNC(=O)c2cccnc2Nc2cccc(C(F)(F)F)c2C)[C@H](C)[C@@H](O)[C@]1(C)O [4′]

bioavailability ([2]; male): 2.5%
AUC [2]: 1130 ng·h/mL
bioavailability [2]: < 10%
Compound: CC[C@H]1OC(=O)[C@H](C)[C@@H](O)[C@H](C)[C@@H](O[C@@H]2O[C@H](C)C[C@H](N(C)C)[C@H]2O)[C@](C)(O)C[C@@H](C)CN(CCCNC(=O)Cc2c(C)n(C(=O)c3ccc(Cl)cc3)c3ccc(OC)cc23)[C@H](C)[C@@H](O)[C@]1(C)O [9′]

Compound: CC[C@H]1OC(=O)[C@H](C)[C@@H](OC2C[C@@](C)(OC)[C@@H](O)[C@H](C)O2)[C@H](C)C(O[C@@H]2O[C@H](C)C[C@H](N(C)C)[C@H]2O)[C@](C)(O)C[C@@H](C)CN(CCCNCCC(=O)O[C@]2(C(=O)OC)[C@H](C)CC3C4C[C@H](F)C5=CC(=O)C=C[C@]5(C)[C@@]4(F)[C@@H](O)C[C@@]32C)[C@H](C)[C@@H](O)[C@]1(C)O (stereo partly shown) [10′]
bioavailability (in vivo [3]): < 1%

bioavailability ([2]; male): < 1%
Compound: CC[C@H]1OC(=O)[C@H](C)[C@@H](O[C@H]2C[C@@](C)(OC)[C@@H](O)[C@H](C)O2)[C@H](C)C(O[C@@H]2O[C@H](C)C[C@H](N(C)C)[C@H]2O)[C@](C)(O)C[C@@H](C)/C(=N\OCCCCCCNC(=O)CNS(=O)(=O)c2ccc(-n3nc(C(F)(F)F)cc3-c3ccc(C)cc3)cc2)[C@H](C)[C@@H](O)[C@]1(C)O (stereo partly shown) [11′]

Compound: CCCC1O[C@@H]2C[C@H]3[C@@H]4CCC5=CC(=O)C=C[C@]5(C)[C@H]4[C@@H](O)C[C@]3(C)[C@]2(C(=O)CO)O1 (stereo partly shown) [Budesonide, budesonide, reference compound]
macroscopic damage score of the colon (TNBS induced colitis; FIG. 1A, 1 mg/kg, score 0-6, no treatment control 4): 2
histological damage score (TNBS induced colitis; FIG. 1B, 1 mg/kg, maximum score 10, no treatment control 7,6): 4,5

Compound: CC[C@H]1OC(=O)[C@H](C)[C@@H](O)[C@H](C)[C@@H](O)[C@](C)(O)C[C@@H](C)CN(CCCNCCC(=O)O[C@]2(C(=O)OC)[C@H](C)CC3C4C[C@H](F)C5=CC(=O)C=C[C@]5(C)[C@@]4(F)[C@@H](O)C[C@@]32C)[C@H](C)[C@@H](O)[C@]1(C)O (stereo partly shown) [Compound 1]
oral bioavailability [4]: not measurable
AUC [5]: 70 ng·h/mL

Compound: CC[C@H]1OC(=O)[C@H](C)[C@@H](O)[C@H](C)[C@@H](O)[C@](C)(O)C[C@@H](C)CN(CCCNC(=O)[C@H]2[C@H](C)CC3C4CCC5=CC(=O)C=C[C@]5(C)[C@@]4(F)[C@@H](O)C[C@@]32C)[C@H](C)[C@@H](O)[C@]1(C)O (stereo partly shown) [Compound 1′]
efficacy on macroscopic damage score compared with budesonide (1 mg/kg) (TNBS induced colitis; FIG. 1A, 2 mg/kg): comparable or superior efficacy to that of the standard steroid budesonide
efficacy on histological damage score compared with budesonide (1 mg/kg) (TNBS induced colitis; FIG. 1B, 2 mg/kg): comparable or superior efficacy to that of the standard steroid budesonide
efficacy on macroscopic damage score compared with budesonide (1 mg/kg) (TNBS induced colitis; FIG. 2, dosages ranging from 4 mg/kg to 0.5 mg/kg): comparable or superior efficacy to that of the standard steroid budesonide

Compound: CC[C@H]1OC(=O)C(C)[C@@H](O[C@H]2C[C@@](C)(OC)[C@@H](O)[C@H](C)O2)[C@H](C)[C@@H](O[C@@H]2O[C@H](C)C[C@H](N(C)C)[C@H]2O)[C@](C)(O)C[C@@H](C)/C(=N\OCCCCCNC(=O)[C@@]2(O)[C@H](C)CC3C4CCC5=CC(=O)C=C[C@]5(C)[C@@]4(F)[C@@H](O)C[C@]32C)[C@H](C)[C@@H](O)[C@]1(C)O (stereo partly shown) [Compound 5]
oral bioavailability ([6]; 30 mg/kg): not measurable
Amounts detected in plasma and blood ([6]; 30 mg/kg): below the limits of detection

Compound: CC[C@H]1OC(=O)[C@H](C)C(OC2C[C@@](C)(OC)[C@@H](O)[C@H](C)O2)[C@H](C)[C@@H](O[C@@H]2O[C@H](C)C[C@H](N(C)CCCNC(=O)[C@]3(O)[C@H](C)CC4C5CCC6=CC(=O)C=C[C@]6(C)[C@@]5(F)[C@@H](O)C[C@@]43C)[C@H]2O)[C@](C)(O)C[C@H](C)CN(C)[C@H](C)[C@@H](O)[C@]1(C)O (stereo partly shown) [Compound 6]
AUC [5]: 400 ng·h/mL

Compound: CC[C@H]1OC(=O)[C@H](C)[C@@H](O)[C@H](C)[C@@H](O)[C@](C)(O)C[C@@H](C)CN(CCCN(CC)CCC(=O)O[C@]2(C(=O)OC)[C@H](C)CC3C4C[C@H](F)C5=CC(=O)C=C[C@]5(C)[C@@]4(F)[C@@H](O)C[C@@]32C)[C@H](C)[C@@H](O)[C@]1(C)O (stereo partly shown) [Compound 8]
AUC [5]: 60 ng·h/mL

Compound: CCCCN(CCCN1C[C@H](C)C[C@@](C)(O)[C@H](O)[C@@H](C)[C@H](O)[C@@H](C)C(=O)O[C@H](CC)[C@@](C)(O)[C@H](O)[C@H]1C)CCC(=O)O[C@]1(C(=O)OC)[C@H](C)CC2C3C[C@H](F)C4=CC(=O)C=C[C@]4(C)[C@@]3(F)[C@@H](O)C[C@@]21C (stereo partly shown) [Compound 9]
AUC [5]: 390 ng·h/mL

Compound: CCCN(CCCN1C[C@H](C)C[C@@](C)(O)[C@H](O)[C@@H](C)[C@H](O)[C@@H](C)C(=O)O[C@H](CC)[C@@](C)(O)[C@H](O)[C@H]1C)CCC(=O)O[C@]1(C(=O)OC)[C@H](C)CC2C3C[C@H](F)C4=CC(=O)C=C[C@]4(C)[C@@]3(F)[C@@H](O)C[C@@]21C (stereo partly shown) [Compound 10]
AUC [5]: 60 ng·h/mL

Compound: CC[C@H]1OC(=O)[C@H](C)[C@@H](O)[C@H](C)[C@@H](O)[C@](C)(O)C[C@@H](C)CN(CCCNC(=O)[C@H]2[C@H](C)CC3C4CCC5=CC(=O)C=C[C@]5(C)[C@@]4(F)[C@@H](O)C[C@@]32C)[C@H](C)[C@@H](O)[C@]1(C)O (stereo partly shown) [drawing 72]
oral bioavailability [6]: not measurable
Amounts detected in plasma and blood [6]: below the limits of detection
